Data from patent US20110160266A1, “Novel Anti-Arrhythmia Agent” (THE UAB RESEARCH FOUNDATION, priority 2008, published 2011).
Entries after “also recorded” stand apart in the source; their conditions may differ. Where a name gives a salt, the structure may show the parent alone.

Assays:
rat left atria [1] = assay: tissue or blood; details: 5 min, read-out: IC50 for suppression of triggered ectopic contractions induced by ATX II
rat left atria [2] = assay: Chaotic, fibrillation-like activity in left atria at 37° C., paced at 6 Hz
Procedure: In this example, it was evaluated whether SKF-96365 could reverse chaotic, fibrillation-like activity. In these experiments, left atria were superfused at 37° C., paced at 6 Hz (a physiological rate under these conditions), exposed to 300 nM BayK 8644 to load calcium and then to 20 μM 2-APB to induce tachycardic activity.

rat left atria [3] = assay: Suppression of STA induced by 2-APB plus BayK 8644 or isoproterenol in left atria
Procedure: 3 Hz-paced left atria (n=9 per group) were superfused (i) in Krebs-Henseleit alone or (ii) they were treated with 20 μM 2-APB for 10 min, (iii) with 300 nM BayK 8644 for 10 min and with 20 μM 2-APB for 10 min, or (iv) they were treated with 300 nM BayK 8644 and 20 μM 2-APB for 10 min, then with 70 μM zatebradine (3-[3-[[2-(3,4-Dimethoxyphenyl)ethyl]methyl amino]propyl]-1,3,4,5-tetrahydro-7,8,-dimethoxy-2H-3-benzazepin-2-one hydrochloride) for 10 min (Baruscotti et al., 2005). Pacing was interrupted at these times and rates of SMA were recorded.
Left atria (n=9) were paced at 0.1 Hz, treated with 300 nM BayK 8644 for 5 min, then with 20 μM 2-APB for 10 min, and the pacing stimulus was stopped. These preparations then were incubated with six increasing concentrations of zatebradine (10-100 μM) for 3-5 min at each concentration, and rates of SMA were recorded. Untreated right atria (n=9) also were titrated with zatebradine and its effect on contraction frequency was recorded.
To test whether zatebradine affects left atrial force of contraction, two groups of left atria (n=9 per group) were paced at 3 Hz and treated with 300 nM BayK 8644. Five minutes later one group was incubated with six increasing concentrations of zatebradine (10-100 μM) for 3-5 min at each concentration, and forces of contraction were recorded. A second group was treated with BayK 8644 but not zatebradine, and forces of contraction were recorded at corresponding times.
To test whether zatebradine affects the SMA occurring in the presence of 2-APB and isoproterenol, left atria (n=7) were paced at 0.1 Hz, treated with 30 nM isoproterenol for 5 min, then with 20 μM 2-APB for 10 min, and the pacing stimulus was stopped. Rates of SMA were recorded, these left atria were exposed to 70 μM zatebradine for 10 min, and rates of SMA were recorded again. A group of right atria (n=7) also were exposed to 30 nM isoproterenol for 5 min and then to 70 μM zatebradine for 10 min. Right atrial contraction frequency was recorded at these two times.
To test whether ZD-7288, an If inhibitor structurally unrelated to zatebradine (Baruscotti et al., 2005; Sanders et al., 2006) affects the SMA occurring in the presence of 2-APB and BayK 8644, rat left atria (n=7) were treated with 300 nM BayK 8644 for 5 min, then with 20 μM 2-APB for 10 min, and the rates of ectopic activity were recorded. These atria then were incubated with six increasing concentrations of ZD-7288 (10-100 μM) for 3-5 min at each concentration, and the rates of SMA were recorded. Right atria (n=7) were titrated similarly with ZD-7288 (0-100 μM) and the change in their contraction frequency was recorded.
In these experiments, a 2-APB model system was used to simulate tachycardic abnormal automaticity. Specifically, superfused left atria were treated sequentially with 300 nM BayK 8644, an activator of voltage-dependent calcium entry, which loads myocytes with calcium, and then with 2-APB (20 μM) to activate the putative myocyte system for abnormal automaticity. […] SKF-96365 (10 μM) was added to the superfusate. SKF-96365 reversed STA in these left atria within 2-3 min and the muscle became quiescent in the absence of pacing (FIG. 34, “Rest”).
Additional experiments determined the concentration-dependence of SKF-96365 inhibition of STA. These experiments were performed as described above except that various concentrations of SKF-96365 were added to the left atrial superfusate (about 10-70 μM). Exposing left atria to various concentrations of SKF-96365 reversed STA (FIG. 35).

rat left atria [4] = assay: Reversal or prevention of 2-APB-induced SMA in superfused rat left atria
Procedure: (A) Titration curve of ranolazine reversal of SMA in superfused left atrial appendage. Superfused appendages (n=7) were treated with 2-APB and following the appearance of SMA they were titrated with increasing concentrations of ranolazine for 3-5 min at any concentration. Rates of SMA in the absence of pacing were recorded. (B) Typical raw mechanical data for an appendage treated with 2-APB and then with 0, 10 or 80 μM ranolazine. All data are in the absence of pacing. […]
To test whether an anion transport inhibitor affected SMA, atria (n=7) were paced at 0.1 Hz in KH and exposed to 15 μM 2-APB. Following the appearance of SMA, they were titrated with 100 to 400 μM DIDS for 3 to 5 min at each concentration. Whether SMA occurred at the end of each titration period was recorded.
In these experiments, a 2-APB model system was used to simulate abnormal automaticity. Specifically, paced (0.1 Hz) superfused left atria were treated with 2-APB (20 μM) and the pacing stimulus was stopped after the appearance of SMA. SKF-96365 (25 μM) was then added to the superfusate and the effect on SMA was measured.
Additional experiments determined the concentration-dependence of SKF-96365 inhibtion of SMA. These experiments were performed as described above except that various concentrations of SKF-96365 were added to the left atrial superfusate (about 10-65 μM).
In these experiments, a 2-APB model system was used to simulate abnormal automaticity. Specifically, superfused left atria were exposed to 0 or to 50 μM SKF-96365 for 10 min. Following this pre-incubation, muscles were titrated with increasing concentrations of 2-APB (0-30 μM) and the rate of SMA was measured about 10 min later in the absence of pacing.

rat left atria [5] = tested on: rat left atria

COc1ccc(CCCOC(Cn2ccnc2)c2ccc(OC)cc2)cc1 (stereo not drawn) [SKF-96365, 1-[β-(3-(4-Methoxyphenyl)propoxy)-4-methoxyphenethyl]-1H-imidazole hydrochloride]
IC50 (rat left atria [1]): ~12 µM
time to restoration of normal patterns of excitation-contraction (rat left atria [2]; ~40 μM SKF-96365, 300 nM BayK 8644 + 20 μM 2-APB): 5 to 8 min
effect on chaotic, fibrillation-like mechanical activity (rat left atria [2]; ~40 μM SKF-96365, hydrochloride): restores normal patterns of excitation-contraction; also recorded: no longer contracted chaotically
time to reversal of STA (rat left atria [3]; 300 nM BayK 8644 + 20 μM 2-APB, SKF-96365 (10 μM), absence of pacing): 2 to 3 min
effect on STA initiated by BayK 8644 and 2-APB (rat left atria [3]; 300 nM BayK 8644 + 20 μM 2-APB, zatebradine 70 μM, ZD-7288 10-100 μM, SKF-96365 about 10-70 μM, hydrochloride): reverses STA
effect on normal excitation-contraction coupling (rat left atria [3]; after STA reversal, 0.1 Hz pacing restored): did not affect normal excitation-contraction coupling
effect on normal excitation-contraction coupling (rat left atria [4]; 25 μM SKF-96365, 0.1 Hz pacing restored after SMA suppression): did not affect normal excitation-contraction coupling
time to suppression of SMA (rat left atria [4]; 25 μM SKF-96365, 2-APB-treated left atria, absence of pacing): 2 to 3 min
prevention of SMA by pre-treatment (rat left atria [4]; 50 μM SKF-96365 for 10 min, then 2-APB 0-30 μM, measured ~10 min later without pacing, hydrochloride): prevents the appearance of SMA
IC50 (rat left atria [4]; Rattus norvegicus, read-out: IC50 for inhibition (reversal) of SMA): ~15 µM
effect on 2-APB-induced sporadic ectopic activity (SMA) (rat left atria [4]; titration after appearance of SMA, absence of pacing): suppressed SMA
time to suppression of SMA (rat left atria [4]; various concentrations of SKF-96365 (about 10-65 μM)): 2 to 3 min
triggered activity after exposure to SKF-96365 (rat left atria [5]; 25 nM ATX II, 20 μM SKF-96365 for ~5 min, 1 Hz pacing, hydrochloride): shows no triggered activity; also recorded: shows no triggered events; also recorded: suppresses triggered activity
effect on left atrial force of contraction / mechanical performance (titration) (rat left atria [5]; 25 nM ATX II, 1 Hz-paced, ~5 min at each concentration, hydrochloride): did not decrease the mechanical performance; also recorded: did not affect left atrial force of contraction
prevention of triggered activity by pre-treatment (rat left atria [5]; SKF-96365 20 μM (legend 20-25 μM) for ~10 min before 25 nM ATX II, recorded over 10-15 min, hydrochloride): prevents the appearance of triggered activity; also recorded: triggered activity does not occur
time to reversal of triggered activity (rat left atria [5]; SKF-96365 added to superfusate of left atria undergoing ATX II triggered activity): 2 to 5 min
